{"source": "paper PMC9692542", "about": "“First Report of the Molecular Mechanism of Resistance to Tribenuron-Methyl in Silene conoidea L” (Plants, 2022)", "tested_on": "T1, ALS (acetolactate synthase)", "T1 construct": "native enzyme in leaf extract, not purified", "assay": "in vitro ALS activity of leaf extract, colorimetric acetoin ([…] nm)", "type": "biochemical, Silene conoidea", "conditions": "leaf extract of susceptible population; read-out: I50 (μM) ^c", "data": [{"smiles": "COC(=O)c1ccccc1S(=O)(=O)NC(=O)N(C)c1nc(C)nc(OC)n1", "note": "[tribenuron-methyl, methyl 2-[[[[N-(4-methoxy-6-methyl-1,3,5triazin-2-yl)methyl-amino]carbonyl]amino]sulfonyl]benzoate]", "values": [{"measurement": "IC50", "result": "11.6 ± 1", "unit": "µM"}]}]}
